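Values below derive from 48-hour exposures of cells grown in 96-well plates, with endpoints linearly interpolated between the two concentrations bracketing the appropriate inhibition level. GI50: concentration for 50% inhibition of growth. The concentration for full growth arrest is given as TGI.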
Key:
Test in all cases: NCI tumour cell line growth inhibition, 48 h
786-0 renal = system: 786-0 renal
A498 renal = system: A498 renal
A549 NSCLC = system: A549 NSCLC
ACHN renal = system: ACHN renal
BT-549 breast = system: BT-549 breast
CAKI-1 renal = system: CAKI-1 renal
CCRF-CEM leukemia = system: CCRF-CEM leukemia
COLO 205 colon = system: COLO 205 colon
DU-145 prostate = system: DU-145 prostate
HCC-2998 colon = system: HCC-2998 colon
HCT-116 colon = system: HCT-116 colon
HCT-15 colon = system: HCT-15 colon
HL-60(TB) leukemia = system: HL-60(TB) leukemia
HOP-62 NSCLC = system: HOP-62 NSCLC
HOP-92 NSCLC = system: HOP-92 NSCLC
HS 578T breast = system: HS 578T breast
HT29 colon = system: HT29 colon
IGROV1 ovarian = system: IGROV1 ovarian
K-562 leukemia = system: K-562 leukemia
KM12 colon = system: KM12 colon
LOX IMVI melanoma = system: LOX IMVI melanoma
M14 melanoma = system: M14 melanoma
MALME-3M melanoma = system: MALME-3M melanoma
MCF7 breast = system: MCF7 breast
MDA-MB-231 breast = system: MDA-MB-231 breast
MDA-MB-435 = system: MDA-MB-435
MOLT-4 leukemia = system: MOLT-4 leukemia
NCI-H226 lung = system: NCI-H226 lung
NCI-H23 lung = system: NCI-H23 lung
NCI-H460 lung = system: NCI-H460 lung
NCI-H522 lung = system: NCI-H522 lung
NCI/ADR-RES ovarian = system: NCI/ADR-RES ovarian
OVCAR-3 ovarian = system: OVCAR-3 ovarian
OVCAR-4 ovarian = system: OVCAR-4 ovarian
OVCAR-5 ovarian = system: OVCAR-5 ovarian
OVCAR-8 ovarian = system: OVCAR-8 ovarian
PC-3 prostate = system: PC-3 prostate
RPMI-8226 leukemia = system: RPMI-8226 leukemia
RXF 393 renal = system: RXF 393 renal
SF-268 CNS = system: SF-268 CNS
SF-295 CNS = system: SF-295 CNS
SF-539 CNS = system: SF-539 CNS
SK-MEL-2 melanoma = system: SK-MEL-2 melanoma
SK-MEL-28 melanoma = system: SK-MEL-28 melanoma
SK-MEL-5 melanoma = system: SK-MEL-5 melanoma
SK-OV-3 ovarian = system: SK-OV-3 ovarian
SN12C renal = system: SN12C renal
SNB-19 CNS = system: SNB-19 CNS
SNB-75 CNS = system: SNB-75 CNS
SR leukemia = system: SR leukemia
SW-620 colon = system: SW-620 colon
T-47D breast = system: T-47D breast
TK-10 renal = system: TK-10 renal
U251 CNS = system: U251 CNS
UACC-257 melanoma = system: UACC-257 melanoma
UACC-62 melanoma = system: UACC-62 melanoma
UO-31 renal = system: UO-31 renal

Compound: CC(C)c1cc(-c2n[nH]c(=O)n2-c2ccc3c(ccn3C)c2)c(O)cc1O
- GI50 (786-0 renal): 0.0686 µM
- TGI (786-0 renal): 45.4 µM
- GI50 (A498 renal): 0.0534 µM
- TGI (A498 renal): 14 µM
- GI50 (A549 NSCLC): < 0.0204 µM
- TGI (A549 NSCLC): > 71.3 µM
- GI50 (ACHN renal): < 0.0209 µM
- TGI (ACHN renal): > 43.1 µM
- GI50 (BT-549 breast): 1.87 µM
- TGI (BT-549 breast): 44.3 µM
- GI50 (CAKI-1 renal): 0.0479 µM
- TGI (CAKI-1 renal): > 71.5 µM
- GI50 (CCRF-CEM leukemia): < 0.0174 µM
- TGI (CCRF-CEM leukemia): > 40.5 µM
- GI50 (COLO 205 colon): 0.0259 µM
- TGI (COLO 205 colon): 0.981 µM
- GI50 (DU-145 prostate): < 0.0237 µM
- TGI (DU-145 prostate): 23 µM
- GI50 (HCC-2998 colon): 0.0256 µM
- TGI (HCC-2998 colon): 2.77 µM
- GI50 (HCT-116 colon): < 0.0141 µM
- TGI (HCT-116 colon): 13.5 µM
- GI50 (HCT-15 colon): < 0.02 µM
- TGI (HCT-15 colon): > 47.7 µM
- GI50 (HL-60(TB) leukemia): < 0.01 µM
- TGI (HL-60(TB) leukemia): 21.8 µM
- GI50 (HOP-62 NSCLC): 0.0794 µM
- TGI (HOP-62 NSCLC): 31.8 µM
- GI50 (HOP-92 NSCLC): < 0.0169 µM
- TGI (HOP-92 NSCLC): 0.0484 µM
- GI50 (HS 578T breast): 0.682 µM
- TGI (HS 578T breast): 90.1 µM
- GI50 (HT29 colon): 0.0423 µM
- TGI (HT29 colon): 12.5 µM
- GI50 (IGROV1 ovarian): < 0.0225 µM
- TGI (IGROV1 ovarian): 24.8 µM
- GI50 (K-562 leukemia): < 0.0123 µM
- TGI (K-562 leukemia): > 100 µM
- GI50 (KM12 colon): 0.0221 µM
- TGI (KM12 colon): 0.062 µM
- GI50 (LOX IMVI melanoma): 0.0238 µM
- TGI (LOX IMVI melanoma): 0.0661 µM
- GI50 (M14 melanoma): < 0.0198 µM
- TGI (M14 melanoma): 21.1 µM
- GI50 (MALME-3M melanoma): < 0.0167 µM
- TGI (MALME-3M melanoma): < 0.031 µM
- GI50 (MCF7 breast): < 0.0161 µM
- TGI (MCF7 breast): 17.3 µM
- GI50 (MDA-MB-231 breast): < 0.023 µM
- TGI (MDA-MB-231 breast): 7.52 µM
- GI50 (MDA-MB-435): < 0.0191 µM
- TGI (MDA-MB-435): 15.6 µM
- GI50 (MOLT-4 leukemia): < 0.0177 µM
- GI50 (NCI-H226 lung): 0.286 µM
- TGI (NCI-H226 lung): 60.1 µM
- GI50 (NCI-H23 lung): 0.0247 µM
- TGI (NCI-H23 lung): 26.7 µM
- GI50 (NCI-H460 lung): < 0.0157 µM
- TGI (NCI-H460 lung): 13.9 µM
- GI50 (NCI-H522 lung): < 0.0205 µM
- TGI (NCI-H522 lung): 17.1 µM
- GI50 (NCI/ADR-RES ovarian): 0.0409 µM
- TGI (NCI/ADR-RES ovarian): > 100 µM
- GI50 (OVCAR-3 ovarian): < 0.0237 µM
- TGI (OVCAR-3 ovarian): 19.4 µM
- GI50 (OVCAR-4 ovarian): 13 µM
- TGI (OVCAR-4 ovarian): > 86.1 µM
- GI50 (OVCAR-5 ovarian): 0.147 µM
- TGI (OVCAR-5 ovarian): > 48.4 µM
- GI50 (OVCAR-8 ovarian): < 0.0232 µM
- TGI (OVCAR-8 ovarian): > 83.7 µM
- GI50 (PC-3 prostate): < 0.0224 µM
- TGI (PC-3 prostate): 49.6 µM
- GI50 (RPMI-8226 leukemia): < 0.0218 µM
- TGI (RPMI-8226 leukemia): 31.3 µM
- GI50 (RXF 393 renal): < 0.0304 µM
- TGI (RXF 393 renal): 21.5 µM
- GI50 (SF-268 CNS): 9.69 µM
- TGI (SF-268 CNS): 38.9 µM
- GI50 (SF-295 CNS): < 0.0215 µM
- TGI (SF-295 CNS): 0.796 µM
- GI50 (SF-539 CNS): < 0.0279 µM
- TGI (SF-539 CNS): 21.8 µM
- TGI (SK-MEL-2 melanoma): 25.7 µM
- GI50 (SK-MEL-28 melanoma): < 0.0215 µM
- TGI (SK-MEL-28 melanoma): 17.2 µM
- GI50 (SK-MEL-5 melanoma): < 0.0207 µM
- TGI (SK-MEL-5 melanoma): 13.9 µM
- GI50 (SK-OV-3 ovarian): < 0.0132 µM
- TGI (SK-OV-3 ovarian): > 43.5 µM
- GI50 (SN12C renal): < 0.0222 µM
- TGI (SN12C renal): > 52.2 µM
- GI50 (SNB-19 CNS): < 0.0236 µM
- TGI (SNB-19 CNS): > 48.5 µM
- GI50 (SNB-75 CNS): 1.58 µM
- TGI (SNB-75 CNS): 97.7 µM
- GI50 (SR leukemia): < 0.01 µM
- TGI (SR leukemia): 35 µM
- GI50 (SW-620 colon): < 0.013 µM
- TGI (SW-620 colon): 24.5 µM
- GI50 (T-47D breast): < 0.0287 µM
- TGI (T-47D breast): 34.5 µM
- GI50 (TK-10 renal): < 0.0271 µM
- TGI (TK-10 renal): 37 µM
- GI50 (U251 CNS): < 0.0257 µM
- TGI (U251 CNS): 18 µM
- GI50 (UACC-257 melanoma): < 0.0195 µM
- TGI (UACC-257 melanoma): 30.6 µM
- GI50 (UACC-62 melanoma): < 0.0173 µM
- TGI (UACC-62 melanoma): 0.224 µM
- GI50 (UO-31 renal): < 0.0218 µM
- TGI (UO-31 renal): > 65.2 µM

From PubChem BioAssay (NCI)
